# Experimental data reported in ChEMBL document CHEMBL1201861, “Genomics of Drug Sensitity in Cancer screening data, Wellcome Trust Sanger Institute”.
# How the values were obtained:
# Experiment in all cases: cells
# Conditions in all cases: Homo sapiens
# COLO-824 = assay type: functional, cell-based
# Description: SANGER: Inhibition of human COLO-824 cell growth in a cell viability assay.
# COLO-829 = assay type: functional, cell-based
# Description: SANGER: Inhibition of human COLO-829 cell growth in a cell viability assay.
# CTV-1 = assay type: functional, cell-based;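 also: growth inhibition of the cell line, read out with a cell viability assay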
# Description: SANGER: Inhibition of human CTV-1 cell growth in a cell viability assay.
# Calu-6 = assay type: functional, cell-based;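 also: growth of human Calu-6 cells, read out by a cell viability assay, IC50 marking inhibition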
# Description: SANGER: Inhibition of human Calu-6 cell growth in a cell viability assay.
# DEL = assay type: functional, cell-based;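 also: growth inhibition of the human DEL cell line, read out with a cell viability assay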
# Description: SANGER: Inhibition of human DEL cell growth in a cell viability assay.
# DMS-114 = assay type: functional, cell-based
# DMS-79 = assay type: functional, cell-based;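 also: growth inhibition measured with a cell viability assay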
# Description: SANGER: Inhibition of human DMS-79 cell growth in a cell viability assay.
# DSH1 = assay type: functional, cell-based;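 also: growth inhibition of human DSH1 cells, measured with a cell viability readout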
# Description: SANGER: Inhibition of human DSH1 cell growth in a cell viability assay.
# EC-GI-10 = assay type: functional, cell-based
# Description: SANGER: Inhibition of human EC-GI-10 cell growth in a cell viability assay.
# ETK-1 = assay type: functional, cell-based;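 also: growth inhibition of human ETK-1 cells, read out with a cell viability assay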
# Description: SANGER: Inhibition of human ETK-1 cell growth in a cell viability assay.
# EW-24 = assay type: functional, cell-based;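 also: human EW-24 cancer cell line, growth inhibition read out via a cell viability assay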
# Description: SANGER: Inhibition of human EW-24 cell growth in a cell viability assay.
# EOL1 = assay type: functional, cell-based;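 also: growth inhibition of EoL-1 cells, read out by a cell viability assay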
# Description: SANGER: Inhibition of human EoL-1-cell cell growth in a cell viability assay.
# GAK = assay type: functional, cell-based;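 also: cell growth inhibition read out by a cell viability assay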
# Description: SANGER: Inhibition of human GAK cell growth in a cell viability assay.
# HAL-01 = assay type: functional, cell-based;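 also: growth inhibition of human HAL-01 cells, read out with a cell viability assay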
# Description: SANGER: Inhibition of human HAL-01 cell growth in a cell viability assay.
# HCC1187 = assay type: functional, cell-based;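 also: growth inhibition of HCC1187 cells, read out with a cell viability assay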
# Description: SANGER: Inhibition of human HCC1187 cell growth in a cell viability assay.
# HD-MY-Z = assay type: functional, cell-based;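 also: growth inhibition of HD-MY-Z cells, read out with a cell viability assay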
# Description: SANGER: Inhibition of human HD-MY-Z cell growth in a cell viability assay.
# HT-144 = assay type: functional, cell-based
# Description: SANGER: Inhibition of human HT-144 cell growth in a cell viability assay.
# IST-SL1 = assay type: functional, cell-based;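 also: growth inhibition of human IST-SL1 cells, read out with a cell viability assay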
# Description: SANGER: Inhibition of human IST-SL1 cell growth in a cell viability assay.
# JVM-2 = assay type: functional, cell-based;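 also: growth inhibition of JVM-2 cells determined by a cell viability assay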
# Description: SANGER: Inhibition of human JVM-2 cell growth in a cell viability assay.
# KALS-1 = assay type: functional, cell-based;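 also: growth inhibition of KALS-1 cells, determined with a cell viability assay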
# Description: SANGER: Inhibition of human KALS-1 cell growth in a cell viability assay.
# KU812 cell line = assay type: functional, cell-based;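 also: growth inhibition of KU812 cells, read out with a cell viability assay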
# Description: SANGER: Inhibition of human KU812 cell growth in a cell viability assay.
# L-428 = assay type: functional, cell-based
# Description: SANGER: Inhibition of human L-428 cell growth in a cell viability assay.
# LAMA-84 = assay type: functional, cell-based;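 also: growth inhibition of LAMA-84 cells, read out with a cell viability assay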
# Description: SANGER: Inhibition of human LAMA-84 cell growth in a cell viability assay.
# LB2518-MEL = assay type: functional, cell-based;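 also: growth inhibition of human LB2518-MEL cells, measured with a cell viability assay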
# Description: SANGER: Inhibition of human LB2518-MEL cell growth in a cell viability assay.
# LC-2-ad = assay type: functional, cell-based;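 also: growth inhibition of human LC-2-ad cells, read out with a cell viability assay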
# Description: SANGER: Inhibition of human LC-2-ad cell growth in a cell viability assay.
# LU-139 = assay type: functional, cell-based
# Description: SANGER: Inhibition of human LU-139 cell growth in a cell viability assay.
# MC116 = assay type: functional, cell-based;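 also: growth inhibition of MC116 cells, read out with a cell viability assay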
# Description: SANGER: Inhibition of human MC116 cell growth in a cell viability assay.
# MFM-223 = assay type: functional, cell-based
# Description: SANGER: Inhibition of human MFM-223 cell growth in a cell viability assay.
# MPP-89 = assay type: functional, cell-based;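 also: growth inhibition of human MPP-89 cells, read out with a cell viability assay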
# Description: SANGER: Inhibition of human MPP-89 cell growth in a cell viability assay.
# MZ2-MEL = assay type: functional, cell-based;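 also: growth inhibition of MZ2-MEL cells read out with a cell viability assay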
# Description: SANGER: Inhibition of human MZ2-MEL cell growth in a cell viability assay.
# NB13 = assay type: functional, cell-based;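 also: cell viability readout measuring growth inhibition of human NB13 cells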
# Description: SANGER: Inhibition of human NB13 cell growth in a cell viability assay.
# NCI-H1092 = assay type: functional, cell-based;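 also: cell growth inhibition measured with a cell viability assay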
# Description: SANGER: Inhibition of human NCI-H1092 cell growth in a cell viability assay.
# NCI-H1304 = assay type: functional, cell-based;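 also: growth inhibition of the cancer cell line, measured in a cell viability assay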
# Description: SANGER: Inhibition of human NCI-H1304 cell growth in a cell viability assay.
# NCI-H1395 = assay type: functional, cell-based;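 also: cell viability assay read-out quantifying reduced proliferation of human NCI-H1395 cells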
# Description: SANGER: Inhibition of human NCI-H1395 cell growth in a cell viability assay.
# NCI-H1770 = assay type: functional, cell-based;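 also: growth inhibition of NCI-H1770 cells determined with a viability readout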
# Description: SANGER: Inhibition of human NCI-H1770 cell growth in a cell viability assay.
# NCI-H2126 = assay type: functional, cell-based;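 also: growth inhibition of the cancer cell line, determined with a cell viability readout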
# Description: SANGER: Inhibition of human NCI-H2126 cell growth in a cell viability assay.
# NCI-H226 = assay type: functional, cell-based;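 also: cell viability read-out used to gauge growth inhibition of the cells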
# Description: SANGER: Inhibition of human NCI-H226 cell growth in a cell viability assay.
# NCI-H23 = assay type: functional, cell-based;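 also: cell viability assay measuring growth inhibition of NCI-H23 cells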
# Description: SANGER: Inhibition of human NCI-H23 cell growth in a cell viability assay.
# NCI-H510A = assay type: functional, cell-based;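 also: growth inhibition of NCI-H510A cells, read out with a cell viability assay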
# Description: SANGER: Inhibition of human NCI-H510A cell growth in a cell viability assay.
# NCI-H720 = assay type: functional, cell-based;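 also: growth inhibition of human NCI-H720 cells determined by a cell viability assay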
# Description: SANGER: Inhibition of human NCI-H720 cell growth in a cell viability assay.
# NCI-H82 = assay type: functional, cell-based;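 also: growth inhibition of NCI-H82 cells, measured with a cell viability readout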
# Description: SANGER: Inhibition of human NCI-H82 cell growth in a cell viability assay.
# NH-12 = assay type: functional, cell-based;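 also: growth inhibition of NH-12 cells, read out with a cell viability assay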
# Description: SANGER: Inhibition of human NH-12 cell growth in a cell viability assay.
# OCI-AML2 = assay type: functional, cell-based;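 also: growth inhibition of OCI-AML2 cells, read out with a cell viability assay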
# Description: SANGER: Inhibition of human OCI-AML2 cell growth in a cell viability assay.
# OCUB-M = assay type: functional, cell-based;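 also: growth inhibition of the cancer cell line, read out through a cell viability assay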
# Description: SANGER: Inhibition of human OCUB-M cell growth in a cell viability assay.
# OS-RC-2 = assay type: functional, cell-based;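 also: growth inhibition of human OS-RC-2 cells, measured by a cell viability assay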
# Description: SANGER: Inhibition of human OS-RC-2 cell growth in a cell viability assay.
# OVCAR-4 = assay type: functional, cell-based;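 also: growth inhibition of human OVCAR-4 cells, measured with a cell viability assay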
# Description: SANGER: Inhibition of human OVCAR-4 cell growth in a cell viability assay.
# RCC10RGB = assay type: functional, cell-based;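 also: growth inhibition of human RCC10RGB cells, read out by a cell viability assay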
# Description: SANGER: Inhibition of human RCC10RGB cell growth in a cell viability assay.
# RH-1 = assay type: functional, cell-based;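 also: growth inhibition of human RH-1 cells, read out with a cell viability assay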
# Description: SANGER: Inhibition of human RH-1 cell growth in a cell viability assay.
# RS4-11 = assay type: functional, cell-based;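 also: growth inhibition of RS4-11 cells, read out by a cell viability assay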
# Description: SANGER: Inhibition of human RS4-11 cell growth in a cell viability assay.
# SCH = assay type: functional, cell-based;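 also: growth inhibition of human SCH cells, read out in a cell viability assay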
# Description: SANGER: Inhibition of human SCH cell growth in a cell viability assay.
# SHP77 = assay type: functional, cell-based, SHP-77;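 also: growth inhibition of human SHP-77 cells measured by a cell viability assay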
# Description: SANGER: Inhibition of human SHP-77 cell growth in a cell viability assay.
# SK-N-DZ = assay type: functional, cell-based;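 also: growth inhibition of the cancer cell line, read out through a viability assay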
# Description: SANGER: Inhibition of human SK-N-DZ cell growth in a cell viability assay.
# SK-N-FI = assay type: functional, cell-based;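 also: cell viability assay measuring growth inhibition of human SK-N-FI cells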
# Description: SANGER: Inhibition of human SK-N-FI cell growth in a cell viability assay.
# SK-UT-1 = assay type: functional, cell-based;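 also: growth inhibition of SK-UT-1 cells, measured by a cell viability assay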
# Description: SANGER: Inhibition of human SK-UT-1 cell growth in a cell viability assay.
# SNB-75 = assay type: functional, cell-based;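 also: cell viability assay measuring growth inhibition of human SNB-75 cells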
# Description: SANGER: Inhibition of human SNB75 cell growth in a cell viability assay.
# SW684 = assay type: functional, cell-based;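 also: growth inhibition of human SW684 cells, measured by a cell viability assay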
# Description: SANGER: Inhibition of human SW684 cell growth in a cell viability assay.
# SW872 = assay type: functional, cell-based;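 also: growth inhibition of SW872 cells, read out by a viability assay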
# Description: SANGER: Inhibition of human SW872 cell growth in a cell viability assay.
# A3-KAW = assay type: functional, cell-based;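 also: growth inhibition of human A3-KAW cells, read out with a cell viability assay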
# Description: SANGER: Inhibition of human A3-KAW cell growth in a cell viability assay.
# A498 = assay type: functional, cell-based
# Description: SANGER: Inhibition of human A498 cell growth in a cell viability assay.
# ATN-1 = assay type: functional, cell-based
# Description: SANGER: Inhibition of human ATN-1 cell growth in a cell viability assay.
# BB65-RCC = assay type: functional, cell-based
# Description: SANGER: Inhibition of human BB65-RCC cell growth in a cell viability assay.
# BV-173 = assay type: functional, cell-based
# Description: SANGER: Inhibition of human BV-173 cell growth in a cell viability assay.
# TE-12 = assay type: functional, cell-based
# Description: SANGER: Inhibition of human TE-12 cell growth in a cell viability assay.
# TGBC1TKB = assay type: functional, cell-based
# Description: SANGER: Inhibition of human TGBC1TKB cell growth in a cell viability assay.
# no-10 = assay type: functional, cell-based
# Description: SANGER: Inhibition of human no-10 cell growth in a cell viability assay.
# CAS-1 = assay type: functional, cell-based
# Description: SANGER: Inhibition of human CAS-1 cell growth in a cell viability assay.
structure (smiles),measurement,setting,value
CCNC(=O)c1noc(-c2cc(C(C)C)c(O)cc2O)c1-c1ccc(CN2CCOCC2)cc1 [LUMINESPIB],IC50,COLO-824,110 nM
same,IC50,COLO-829,> 256 nM
same,IC50,CTV-1,41.2 nM
same,IC50,Calu-6,79.6 nM
same,IC50,DEL,112 nM
same,IC50,DMS-114,> 256 nM
same,IC50,DMS-79,> 256 nM
same,IC50,DSH1,62.7 nM
same,IC50,EC-GI-10,> 256 nM
same,IC50,ETK-1,28.1 nM
same,IC50,EW-24,> 256 nM
same,IC50,EOL1,> 256 nM
same,IC50,GAK,57.3 nM
same,IC50,HAL-01,> 256 nM
same,IC50,HCC1187,> 256 nM
same,IC50,HD-MY-Z,144 nM
same,IC50,HT-144,1.55 nM
same,IC50,IST-SL1,> 256 nM
same,IC50,JVM-2,> 256 nM
same,IC50,KALS-1,14.7 nM
same,IC50,KU812 cell line,36.8 nM
same,IC50,L-428,77 nM
same,IC50,LAMA-84,41.7 nM
same,IC50,LB2518-MEL,> 256 nM
same,IC50,LC-2-ad,13.7 nM
same,IC50,LU-139,> 256 nM
same,IC50,MC116,> 256 nM
same,IC50,MFM-223,> 256 nM
same,IC50,MPP-89,97.2 nM
same,IC50,MZ2-MEL,31.8 nM
same,IC50,NB13,42.3 nM
same,IC50,NCI-H1092,141 nM
same,IC50,NCI-H1304,82.7 nM
same,IC50,NCI-H1395,> 256 nM
same,IC50,NCI-H1770,58.8 nM
same,IC50,NCI-H2126,> 256 nM
same,IC50,NCI-H226,59.9 nM
same,IC50,NCI-H23,241 nM
same,IC50,NCI-H510A,> 256 nM
same,IC50,NCI-H720,> 256 nM
same,IC50,NCI-H82,> 256 nM
same,IC50,NH-12,44.4 nM
same,IC50,OCI-AML2,12.8 nM
same,IC50,OCUB-M,39.6 nM
same,IC50,OS-RC-2,34 nM
same,IC50,OVCAR-4,38.6 nM
same,IC50,RCC10RGB,> 256 nM
same,IC50,RH-1,62.3 nM
same,IC50,RS4-11,33.8 nM
same,IC50,SCH,> 256 nM
same,IC50,SHP77,145 nM
same,IC50,SK-N-DZ,179 nM
same,IC50,SK-N-FI,> 256 nM
same,IC50,SK-UT-1,32.2 nM
same,IC50,SNB-75,24.7 nM
same,IC50,SW684,> 256 nM
same,IC50,SW872,32.2 nM
same,IC50,A3-KAW,227 nM
same,IC50,A498,> 256 nM
same,IC50,ATN-1,> 256 nM
same,IC50,BB65-RCC,12 nM
same,IC50,BV-173,34.3 nM
same,IC50,TE-12,17.8 nM
same,IC50,TGBC1TKB,210 nM
same,IC50,no-10,30.2 nM
same,IC50,CAS-1,120 nM
O=c1[nH]c2ccccc2n1C1CCN(Cc2ccc(-c3nc4cc5[nH]cnc5cc4nc3-c3ccccc3)cc2)CC1,IC50,COLO-824,> 2560 nM
same,IC50,COLO-829,> 2560 nM
same,IC50,CTV-1,> 2560 nM
same,IC50,Calu-6,> 2560 nM
same,IC50,DEL,> 2560 nM
same,IC50,DMS-114,> 2560 nM
same,IC50,DMS-79,> 2560 nM
same,IC50,DSH1,987 nM
same,IC50,EC-GI-10,> 2560 nM
same,IC50,ETK-1,> 2560 nM
same,IC50,EW-24,> 2560 nM
same,IC50,EOL1,> 2560 nM
same,IC50,GAK,> 2560 nM
same,IC50,HAL-01,> 2560 nM
same,IC50,HCC1187,> 2560 nM
same,IC50,HD-MY-Z,> 2560 nM
same,IC50,HT-144,> 2560 nM
same,IC50,IST-SL1,> 2560 nM
same,IC50,JVM-2,> 2560 nM
same,IC50,KALS-1,> 2560 nM
same,IC50,KU812 cell line,1730 nM
same,IC50,L-428,> 2560 nM
same,IC50,LAMA-84,> 2560 nM
same,IC50,LB2518-MEL,> 2560 nM
same,IC50,LC-2-ad,> 2560 nM
same,IC50,LU-139,> 2560 nM
same,IC50,MC116,> 2560 nM
same,IC50,MFM-223,> 2560 nM
same,IC50,MPP-89,> 2560 nM
same,IC50,MZ2-MEL,> 2560 nM
same,IC50,NB13,> 2560 nM
same,IC50,NCI-H1092,> 2560 nM
same,IC50,NCI-H1304,> 2560 nM
same,IC50,NCI-H1395,> 2560 nM
same,IC50,NCI-H1770,> 2560 nM
same,IC50,NCI-H2126,> 2560 nM
same,IC50,NCI-H226,> 2560 nM
same,IC50,NCI-H23,> 2560 nM
same,IC50,NCI-H510A,> 2560 nM
same,IC50,NCI-H720,> 2560 nM
same,IC50,NCI-H82,> 2560 nM
same,IC50,NH-12,609 nM
same,IC50,OCI-AML2,> 2560 nM
same,IC50,OCUB-M,> 2560 nM
same,IC50,OS-RC-2,> 2560 nM
same,IC50,OVCAR-4,> 2560 nM
same,IC50,RCC10RGB,> 2560 nM
same,IC50,RH-1,> 2560 nM
same,IC50,RS4-11,> 2560 nM
same,IC50,SCH,> 2560 nM
same,IC50,SHP77,> 2560 nM
same,IC50,SK-N-DZ,> 2560 nM
same,IC50,SK-N-FI,> 2560 nM
same,IC50,SK-UT-1,1350 nM
same,IC50,SNB-75,> 2560 nM
same,IC50,SW684,> 2560 nM
same,IC50,SW872,> 2560 nM
same,IC50,A3-KAW,> 2560 nM
same,IC50,A498,1080 nM
same,IC50,ATN-1,> 2560 nM
same,IC50,BB65-RCC,> 2560 nM
same,IC50,BV-173,> 2560 nM
same,IC50,TE-12,> 2560 nM
same,IC50,TGBC1TKB,> 2560 nM
same,IC50,no-10,> 2560 nM
same,IC50,CAS-1,> 2560 nM
